Molecules are shown by their SMILES. Structures can show the parent of a compound that is named as a salt. A value given as a limit tells only on which side of the number the result lay.

Series [1] concerns the target T1, human S1P3 receptor (Homo sapiens, UniProt Q99500).
T1 construct: expressed in transfected cells; membranes
Description: S1P3 GTPγS assay. The format is biochemical. The conditions noted are these: [35S]-GTPγS SPA, S1P3 RBL-2H3 membranes, agonist. On the procedure:
For membrane preparations all steps were performed at 4° C. Rat hepatoma cells stably expressing the human S1P1 receptor or Rat Basophilic Leukaemia cells (RBL) stably expressing human S1P3 receptor were grown to 80% confluency before being harvested into 10 ml Phospho-Buffered Saline (PBS) and centrifuged at 1200 rpm for 5 minutes. After removal of the supernatant, the pellet was re-suspended and cells were homogenised within a glass Waring blender for 2 bursts of 15 secs in 200 mls of buffer (50 mM HEPES, 1 mM leupeptin, 25 μg/ml bacitracin, 1 mM EDTA, 1 mM PMSF, 2 μM pepstatin A). The blender was plunged into ice for 5 mins after the first burst and 10-40 mins after the final burst to allow foam to dissipate. The material was then spun at 500 g for 20 mins and the supernatant spun for 36 mins at 48,000 g. The pellet was resuspended in the same buffer as above but without PMSF and pepstatin A. The material was then forced through a 0.6 mm needle, made up to the required volume, (usually ×4 the volume of the original cell pellet), aliquoted and stored frozen at −80° C.
After 30 minutes pre-coupling on ice the bead and membrane suspension was dispensed into a white Greiner polypropylene LV384-well plate (5 μl/well), containing 0.1 μl of the compound. 5 μl/well [^35S]-GTPγS (0.5 nM final radioligand conc) made up in assay buffer was then added to agonist plates. The final assay cocktail (10.1 μl) was centrifuged at 1000 rpm for 5 minutes then read immediately on a Viewlux reader.
All test compounds were dissolved in DMSO at a concentration of 10 mM and were prepared in 100% DMSO using a 1 in 4 dilution step to provide 11 point dose response curves. The dilutions were transferred to the assay plates ensuring that the DMSO concentration was constant across the plate for all assays.
All data was normalized to the mean of 16 high and 16 low control wells on each plate. A four parameter curve fit was then applied.
S1P3 expressing RBL membranes (1.5 μg/well) were homogenised by passing through a 23 G needle. […] GDP 10 μM FAC and saponin 90 μg/ml FAC were also added
After 30 minutes precoupling on ice, the bead and membrane suspension was dispensed into white Greiner polypropylene LV 384-well plates (5 μl/well), containing 0.1 μl of compound. 5 μl/well [^35S]-GTPγS (0.5 nM for S1P1 or 0.3 nM for S1P3 final radioligand concentration) made in assay buffer was then added to the plates. The final assay cocktail (10.1 μl) was then sealed, spun on a centrifuge, then read immediately on a Viewlux instrument.
In general terms: Binding of GTPγS marks nucleotide exchange on a G protein.

For series [2], the system named is circulating lymphocytes. The following applies: animals and man; cited from earlier work.
The conditions of series [3]: clinical studies, first 24 hours of treatment; cited from earlier work.

T1 sequence (Q99500 whole entry): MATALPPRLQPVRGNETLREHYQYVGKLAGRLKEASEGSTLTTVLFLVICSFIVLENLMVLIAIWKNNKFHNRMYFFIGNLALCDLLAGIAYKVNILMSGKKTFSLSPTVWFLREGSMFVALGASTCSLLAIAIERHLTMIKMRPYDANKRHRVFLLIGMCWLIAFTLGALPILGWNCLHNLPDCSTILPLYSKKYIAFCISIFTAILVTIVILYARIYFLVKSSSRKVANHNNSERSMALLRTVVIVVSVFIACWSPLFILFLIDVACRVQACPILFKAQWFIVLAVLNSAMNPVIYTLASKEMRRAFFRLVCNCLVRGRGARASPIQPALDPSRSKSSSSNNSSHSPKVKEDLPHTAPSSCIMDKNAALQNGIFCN

Usually EC50 stands for the midpoint of the concentration-response curve. Low values mean greater potency, high ones weaker potency. Molecule `Cc1c(-c2noc(-c3ccc(OC(C)C)c(Cl)c3)n2)ccc2c1CCNC2CC(=O)O` (stereo not drawn) [Example 3, [6-(5-{3-Chloro-4-[(1-methylethyl)oxy]phenyl}-1,2,4-oxadiazol-3-yl)-5-methyl-1,2,3,4-tetrahydro-1-isoquinolinyl]acetic acid trifluoroacetate] had a concentration giving a half-maximal response (EC50) in series [1] above 10 µM. Still for that read-out and setting: with `Cc1c(-c2noc(-c3ccc(OC(C)C)c(C#N)c3)n2)ccc2c1CCNC2CC(=O)O` (stereo not drawn) [Example 4, [6-(5-{3-Cyano-4-[(1-methylethyl)oxy]phenyl}-1,2,4-oxadiazol-3-yl)-5-methyl-1,2,3,4-tetrahydro-1-isoquinolinyl]acetic acid trifluoroacetate] the figure was above 10 µM; with `Cc1c(-c2noc(-c3ccc(OC(C)C)c(Cl)c3)n2)ccc2c1CCNC2CCCC(=O)O` (stereo not drawn) [Example 5, 4-[6-(5-{3-Chloro-4-[(1-methylethyl)oxy]phenyl}-1,2,4-oxadiazol-3-yl)-5-methyl-1,2,3,4-tetrahydro-1-isoquinolinyl]butanoic acid trifluoroacetate], above 10 µM; with `Cc1c(-c2noc(-c3ccc(OC(C)C)c(C#N)c3)n2)ccc2c1CCNC2CCCC(=O)O` (stereo not drawn) [Example 6, 4-[6-(5-{3-Cyano-4-[(1-methylethyl)oxy]phenyl}-1,2,4-oxadiazol-3-yl)-5-methyl-1,2,3,4-tetrahydro-1-isoquinolinyl]butanoic acid trifluoroacetate], above 10 µM. As to `CCCCCCCCc1ccc(CCC(N)(CO)CO)cc1` [FTY720], the “effect on circulating lymphocytes” value in series [2] is “reduce circulating lymphocytes”. Moreover, in series [3], the bradycardia result is reported as “results in bradycardia in the first 24 hours of treatment”.

These data come from patent US8263620B2, “Oxadiazole derivatives active on sphingosine-1-phosphate (SIP)” (Glaxo Group Limited, priority 2007, dated 2012).
